Like-named read-outs stand apart in the source and are kept apart here.
Columns and labels:
[1] = test system: A549 (lung carcinoma) xenografts; assay: A549 human lung carcinoma xenograft study in nude athymic mice; type: in vivo
Source text: Xenografts for human lung cancer are set-up in groups of nude, athymic mice. The cell line selected was A549 (ATCC number CCL-185), a lung carcinoma.

[2] = test system: human tumours; details: phase I monotherapy, cited from earlier work
[3] = with thalidomide, cited from earlier work
[4] = test system: glucoronidation and 6-methylhydroxylation of DMXAA in mouse liver microsomes; details: diclofenac 100 μM; cited from earlier work
[5] = test system: glucoronidation and 6-methylhydroxylation of DMXAA in human liver microsomes; details: diclofenac 100 μM; cited from earlier work
[6] = diclofenac 100 mg/kg i.p., cited from earlier work

## Cc1ccc2c(=O)c3cccc(CC(=O)O)c3oc2c1C [DMXAA, 5,6-dimethylxanthenone-4-acetic acid]
[1]; A549 xenografts, DMXAA 21 mg/kg, Erbitux 33 mg/kg by injection, deaths/mice per group
  Drug deaths: 2/10
[1]; Complete Response (cure; undetectable tumour over two weeks), Table 2
  Response CR: 0
[1]; Progressive Disease (≧50% increase in tumour size), Table 2
  Response PD: 2/10
[1]; Stable Disease (does not satisfy criteria for PR or PD), Table 2
  Response SD: 16
[1]; difference in days for treated versus control tumours to quadruple in volume
  Tumour Growth Delay: 16 days
[1]; median time to disease progression
  TTP: 16 days
[1]; number of days that tumour volume is less than the original treatment volume
  Regression Duration: 0 days
[1]; tumour volume quadrupling time, A549 xenografts
  Median VQT (Range; days): 48 days
[2]; well-tolerated doses
  tumour blood flow (dynamic MRI): significant reduction in tumour blood flow
[2]
  tumour responses: very few tumour responses

## O=C1CCC(N2C(=O)c3ccccc3C2=O)C(=O)N1 (stereo not drawn) [Thalidomide, thalidomide]
[3]; liver
  increase of the AUC of DMXAA: 1.8 times
[3]; plasma
  increase of the AUC of DMXAA: 1.8 times
[3]; spleen
  increase of the AUC of DMXAA: 1.8 times
[3]; tumour
  increase of the AUC of DMXAA: three times

## O=C(O)Cc1ccccc1Nc1c(Cl)cccc1Cl [diclofenac]
[4]
  inhibition of 6-methylhydroxylation of DMXAA: > 54%
  inhibition of glucoronidation of DMXAA: > 70%
[5]
  inhibition of 6-methylhydroxylation of DMXAA: > 54%
  inhibition of glucoronidation of DMXAA: > 70%
[6]; female mice
  increase in the plasma DMXAA AUC: 31%
[6]; male and female mice, P<0.05
  increase in DMXAA T1/2: threefold increase
[6]; male mice
  increase in the plasma DMXAA AUC: 24%
